{"source": "patent US20140255430A1", "about": "“METHODS AND REAGENTS FOR DETECTION AND TREATMENT OF ESOPHAGEAL METAPLASIA” (NATIONAL UNIVERSITY OF SINGAPORE, priority 2010, published 2014)", "origin": "cited, not measured here", "biological_target": "T1, PPARgamma (Homo sapiens, UniProt P37231)", "T1 sequence (P37231 1-505)": "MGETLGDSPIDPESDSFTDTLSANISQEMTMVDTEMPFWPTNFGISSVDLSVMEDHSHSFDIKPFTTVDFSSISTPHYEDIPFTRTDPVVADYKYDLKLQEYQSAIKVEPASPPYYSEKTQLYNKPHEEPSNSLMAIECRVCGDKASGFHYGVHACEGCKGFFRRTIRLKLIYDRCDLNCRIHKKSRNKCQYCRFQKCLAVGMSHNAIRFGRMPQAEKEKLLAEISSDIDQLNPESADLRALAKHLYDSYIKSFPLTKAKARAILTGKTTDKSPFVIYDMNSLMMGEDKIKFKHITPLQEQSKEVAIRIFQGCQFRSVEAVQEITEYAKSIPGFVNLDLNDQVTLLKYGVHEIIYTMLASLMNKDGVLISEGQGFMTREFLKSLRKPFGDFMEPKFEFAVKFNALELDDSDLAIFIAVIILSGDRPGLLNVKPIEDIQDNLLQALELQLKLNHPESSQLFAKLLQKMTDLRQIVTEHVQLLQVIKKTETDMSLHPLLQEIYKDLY", "details": "irreversible inhibitor"}
{"compound": "O=C(Nc1ccccc1)c1cc([N+](=O)[O-])ccc1Cl", "note": "[GW-9662, 2-Chloro-5-nitro-N-phenyl-benzamide]", "values": [{"measurement": "IC50 for suppression of PPARgamma", "result": "nanomolar"}]}
